Data from publication PMC5618409, “Sequence Analysis, Kinetic Constants, and Anion Inhibition Profile of the Nacrein-Like Protein (CgiNAP2X1) from the Pacific Oyster Magallana gigas (Ex-Crassostrea gigas)” (Marine Drugs, 2017).

Molecular target: CgiNAP2X1 (Magallana gigas, UniProt A0A8W8INI3)
Assay: stopped-flow CO2 hydration assay
Format: biochemical
Conditions: not given

Sequence of CgiNAP2X1 (A0A8W8INI3 23-318 limits assumed): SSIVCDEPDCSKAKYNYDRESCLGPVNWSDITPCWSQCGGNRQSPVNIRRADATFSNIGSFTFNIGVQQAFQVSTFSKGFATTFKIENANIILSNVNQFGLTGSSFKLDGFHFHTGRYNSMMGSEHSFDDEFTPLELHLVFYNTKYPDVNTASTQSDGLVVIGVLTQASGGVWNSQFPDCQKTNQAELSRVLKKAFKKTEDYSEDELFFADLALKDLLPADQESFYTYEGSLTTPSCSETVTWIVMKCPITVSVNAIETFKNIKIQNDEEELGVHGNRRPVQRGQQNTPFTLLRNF

First: O=S(=O)(O)C(F)(F)F [CF3SO3^−]
Second: [O]=[Sn]([OH])[OH] [SnO3^2−]
The Ki of the first is 2.5-fold higher: 8.68 mM for the first, 3.47 mM for the second. The second binds more tightly here.

Going from N#CO [CNO^−] to N#CS [SCN^−], the Ki rises from 3.11 mM to 5.88 mM (1.9-fold).

Cl [Cl^−] and S [HS^−] are within 1.5-fold of each other in Ki: 10.8 mM for the first, 8.19 mM for the second.

I [I^−] and O=NO [NO2^−] are within 1.5-fold of each other in Ki: 8.86 mM for the first, 7.14 mM for the second.

First: N#C[SeH] [SeCN^−]
Second: OB(O)c1ccccc1 [phenylboronic acid]
The Ki of the first is 110-fold higher: 8.21 mM for the first, 0.072 mM for the second.

Same assay, conditions: read-out: KIs [mM] ^2 / CgiNAP2X1

NS(=O)(=O)O [sulfamate] and NS(N)(=O)=O [sulfamide] are within 1.5-fold of each other in Ki: 0.073 mM for the first, 0.076 mM for the second.
